Measured values as given in patent US6630310B1, “Assay for binding between carbohydrate and glycolipid” (Biopolymer Engineering Pharmaceutical, Inc., priority 1996, dated 2003).

Tests used:
NF-κB = assay: EMSA of NF-κB activation in BMC2.3 cells; type: cell-based, murine; settings: 3 μg/ml, various times at 37° C. (FIG. 4)
Method: In order to assess the activation of signal transduction as exemplified by the modulation of one or more transcriptional regulatory factors by underivatized, aqueous soluble β(1-3)-glucan, BMC2.3 cells were incubated with 3 μg/ml underivatized, aqueous soluble β(1-3)-glucan for various periods of time at 37° C. Nuclear extracts were prepared and incubated with ^32P-labeled DNA oligonucleotides specific for NF-κB or NF-IL6. The protein-^32P DNA complexes were separated from unbound ^32P DNA by gel electrophoresis (electrophoretic mobility shift assay, EMSA).
BMC2.3 cells in DMEM plus 10% fetal calf serum were incubated with 3 μg/ml underivatized, aqueous soluble β(1-3)-glucan for various lengths of time. Nuclear extracts were prepared by the method of Dignam et al. (Nuc. Acid Res. 11:1475-1489 (1983)). Nuclear extracts were then incubated with ^32P-labeled DNA oligonucleotide for twenty minutes at room temperature. The sequence of the oligonucleotide used as the probe was […] (SEQ ID NO: 1). The reaction mixture was then separated on a 4% polyacrylamide gel and the results recorded autoradiographically.

[1] = system: neutrophil (human blood leukocyte) membranes; assay: ^3H-PGG-Glucan binding to neutrophil membranes; settings: PMN versus mononuclear cells
Method: The distribution of the receptor for underivatized, aqueous soluble β(1-3)-glucan across various cell lines and human tissues was determined by assessing the binding of radioactively labeled underivatized, aqueous soluble β(1-3)-glucan to membranes derived from a variety of cell types (see Table 2). The amount of radioactively labeled underivatized, aqueous soluble β(1-3)-glucan binding is expressed as mean±standard deviation in ng/mg membrane protein. The non-specific binding is defined as radioactively labeled underivatized, aqueous soluble β(1-3)-glucan bound in the presence of greater than 100-fold excess unlabeled underivatized, aqueous soluble β(1-3)-glucan. The specific binding is determined by (Total Binding)−(Non-Specific Binding), with the number in parenthesis in Table 2 representing the percent total binding. Quantitation of complement receptor 3 (CR3) was carried out by flow cytometry using fluorescently-labeled anti-CD11b, and data are expressed as mean channel fluorescence (MCF) in arbitrary fluorescence units; background fluorescence for isotype controls were subtracted. The neutrophil sample was greater than 95 percent neutrophils by histology. […]
Membranes were diluted to 2 to 5 mg/ml in HBSS with and without 1 mg/ml BSA. […] No radioactivity was found in the oil layer in the absence of added membranes. […]

[2] = system: human leukocyte membranes; assay: Direct binding of radioactively labeled underivatized, aqueous soluble β(1-3)-glucan to human leukocyte membranes (time course, concentration-dependence, Scatchard)
Method: Bound radioactively labeled underivatized, aqueous soluble β(1-3)-glucan was separated from unbound ligand by centrifugation through a double layer density gradient, and the membrane pellet was solubilized and radioactivity determined. Equilibrium binding was achieved after 60 minutes at 37° C. at a concentration of 1 μg/ml radioactively labeled underivatized, aqueous soluble β(1-3)-glucan (FIG. 1).
Membrane-associated radioactivity was determined following centrifugation of the reaction mixture through a sucrose/oil density gradient as described in the Examples. Specific binding was calculated by subtracting non-specific binding from total binding. […]
Membranes were diluted to 2 to 5 mg/ml in HBSS with and without 1 mg/ml BSA. […] The tubes were spun at 15,000×g for 4-5 minutes and the tips containing the membrane pellets were removed, incubated in 300 μl SOLVABLE™ (New England Nuclear, Boston, Mass.) overnight at 50° C. to dissolve the pellet, and then radioactivity determined by liquid scintillation counting. No radioactivity was found in the oil layer in the absence of added membranes. […]

Substance: underivatized, aqueous soluble β(1-3)-glucan [PGG-Glucan]
- NF-κB protein-^32P DNA complex formation (EMSA, in words) (NF-κB): time dependent increase in protein-DNA complexes
- specific binding of human peripheral blood PMN relative to mononuclear cells [1]: five to ten
- binding to its receptor at room temperature or below (in words) [2]: does not bind
